Reference: ChEMBL document CHEMBL3352628, “Stereochemical modification of geminal dialkyl substituents on pantothenamides alters antimicrobial activity” (Bioorg Med Chem Lett, 2014)
≈ marks a conversion by molar mass, not a printed value. Calls of active or inactive are those of the source. No cut-off for these calls is given here.

Experiments:
Staphylococcus aureus [1] = assay: Antimicrobial activity against oxacillin-susceptible Staphylococcus aureus ATCC 29213 at 500 uM after 18 hrs by microdilution broth method; type: functional, organism-based
Staphylococcus aureus [2] = assay: Antimicrobial activity against oxacillin-resistant Staphylococcus aureus 43300 at 500 uM after 18 hrs by microdilution broth method; type: functional, organism-based
Plasmodium falciparum [3] = assay: Antimicrobial activity against chloroquine-sensitive Plasmodium falciparum 3D7 ring stage parasite assessed as reduction in parasite proliferation after 96 hrs in presence of 1 uM pantothenate by SYBR Safe DNA gel staining based assay; type: functional, organism-based; details: 3D7, 96 h
Plasmodium falciparum [4] = assay: Antimicrobial activity against chloroquine-sensitive Plasmodium falciparum 3D7 ring stage parasite assessed as reduction in parasite proliferation after 96 hrs in presence of 50 uM pantothenate by SYBR Safe DNA gel staining based assay; type: functional, organism-based; details: 3D7, 96 h
HFF = assay: Cytotoxicity against HFF cells at 1 to 100 uM after 48 hrs by SYBR Safe DNA gel staining based assay; type: cell-based; details: human
Staphylococcus aureus [5] = assay: Antimicrobial activity against oxacillin-susceptible Staphylococcus aureus ATCC 29213 after 18 hrs by microdilution broth method; type: functional; details: ATCC 29213, 18 h
Staphylococcus aureus [6] = assay: Antimicrobial activity against oxacillin-resistant Staphylococcus aureus 43300 after 18 hrs by microdilution broth method; type: functional; details: Staphylococcus aureus, 43300, 18 h

In the case of `C=CC[C@@](C)(CO)[C@@H](O)C(=O)NCCC(=O)NCCCCC`, the Activity (Staphylococcus aureus [1]) is reported as “inactive”, the Activity (Staphylococcus aureus [2]) is reported as “inactive” and the IC50 (Plasmodium falciparum [3]) is reported as 2.4 µM. The IC50 (Plasmodium falciparum [4]) was 13 µM, the Activity (HFF) was “Non-toxic” and the MIC (Staphylococcus aureus [5]) was 3.2 µM (≈ 1.01 µg/mL). The MIC (Staphylococcus aureus [6]) was 3.2 µM (≈ 1.01 µg/mL).
With `C=CC[C@](C)(CO)[C@@H](O)C(=O)NCCC(=O)NCCCCC` the IC50 (Plasmodium falciparum [3]) was 31 µM and the Activity (HFF) was “Non-toxic”.
